Reference: article PMC11762577 (Materials Today Bio, 2025)

Assays:
[1] = assay type: in vivo, BALB/c nude mice; settings: orthotopic glioma nude mice; 2.5 mg/kg Dox equivalent every three days; n = 5
[2] = system: U87-MG cells; assay: CCK-8 cell viability / cytotoxicity assay in U87-MG cells; assay type: cell-based, human; settings: incubation with U87-MG cells for 24 h

COc1cccc2c1C(=O)c1c(O)c3c(c(O)c1C2=O)C[C@@](O)(C(=O)CO)C[C@@H]3O[C@H]1C[C@H](N)[C@H](O)[C@H](C)O1 [Dox, doxorubicin]
body weight of tumor-bearing mice [1]: decreased on day 12
IC50 (equivalent Dox concentration), U87-MG cell viability [2]: 3.49 µg/mL
